# In patent US20250034201A1, “PRODRUGS OF GANAXOLONE” (priority 2022, published 2025):
# Like-named read-outs stand apart in the source and are kept apart here.
# Assay: in vitro
# Assay type: in vitro ADME, human
# Description: For several compounds only human liver microsomal stability was tested. […] The microsomal assays were carried out with and without the addition of NADPH at a final concentration of 1 mM. For negative control samples, NADPH reagent was not added. […] Note that compounds undergo only Phase I metabolism in liver microsomes.
# [1] = human liver microsomes 0.5 mg/mL, with NADPH, compound 0.5 μM, 37° C., read-out: Human Liver Microsomal Stability t1/2
# [2] = human liver microsomes 0.5 mg/mL, with NADPH, compound 0.5 μM, read-out: Human Liver Microsomal Stability CLint (uL/min/mg liver) (converted)
# [3] = human liver microsomes, no NADPH, compound 0.5 μM
smiles,measurement,setting,value
CC(=O)[C@H]1CC[C@H]2[C@@H]3CC[C@H]4C[C@](C)(OC(=O)C5CC5C(=O)NCCN(C)C)CC[C@]4(C)[C@H]3CC[C@]12C (stereo partly shown) [Compound 411],Comments: production of GNX (ganaxolone) in human liver microsomes,human liver microsomes,In human small amount of GNX produced
same,half-life,[1],444 min
same,microsomal CLint,[2],3.12 µL/min/mg
same,"Human Liver Microsomal Stability no NADPH, % remain 1 h",[3],99%
CC(=O)[C@H]1CC[C@H]2[C@@H]3CC[C@H]4C[C@](C)(OC(=O)COC(=O)[C@H](C)N5CCOCC5)CC[C@]4(C)[C@H]3CC[C@]12C [Compound 211],half-life,[1],10.5 min
same,microsomal CLint,[2],132 µL/min/mg
same,"Human Liver Microsomal Stability no NADPH, % remain 1 h",[3],27%
CC(=O)[C@H]1CC[C@H]2[C@@H]3CC[C@H]4C[C@](C)(OC(=O)CSC(C)(C)COC(=O)CN5CCOCC5)CC[C@]4(C)[C@H]3CC[C@]12C [Compound 310],Comments: production of GNX (ganaxolone) in human liver microsomes,human liver microsomes,In human no GNX produced
same,half-life,[1],2.9 min
same,microsomal CLint,[2],474 µL/min/mg
same,"Human Liver Microsomal Stability no NADPH, % remain 1 h",[3],1%
CC(=O)[C@H]1CC[C@H]2[C@@H]3CC[C@H]4C[C@](C)(OC(=O)C5CC5C(=O)O)CC[C@]4(C)[C@H]3CC[C@]12C (stereo partly shown) [Compound 408],Comments: production of GNX (ganaxolone) in human liver microsomes,human liver microsomes,In human no GNX produced
same,half-life,[1],143 min
same,microsomal CLint,[2],9.72 µL/min/mg
same,"Human Liver Microsomal Stability no NADPH, % remain 1 h",[3],76%
CC(=O)[C@H]1CC[C@H]2[C@@H]3CC[C@H]4C[C@](C)(OC(=O)CC(C)(C)C(=O)NCCN(C)C)CC[C@]4(C)[C@H]3CC[C@]12C [Compound 412],Comments: production of GNX (ganaxolone) in human liver microsomes,human liver microsomes,In human small amount of GNX produced
same,half-life,[1],273 min
same,microsomal CLint,[2],5.07 µL/min/mg
same,"Human Liver Microsomal Stability no NADPH, % remain 1 h",[3],94%
CC(=O)[C@H]1CC[C@H]2[C@@H]3CC[C@H]4C[C@](C)(OC(=O)COC(=O)[C@@H](C)N5CCOCC5)CC[C@]4(C)[C@H]3CC[C@]12C [Compound 212],Comments: production of GNX (ganaxolone) in human liver microsomes,human liver microsomes,In human small amount of GNX produced
same,half-life,"human, microsomes",14.3 min
same,microsomal CLint,"human, microsomes",96.9 µL/min/mg
same,"Human Liver Microsomal Stability no NADPH, % remain 1 h","human, microsomes",99%
CC(=O)[C@H]1CC[C@H]2[C@@H]3CC[C@H]4C[C@](C)(OC(=O)CNCC(=O)O)CC[C@]4(C)[C@H]3CC[C@]12C [Compound 124],Comments: production of GNX (ganaxolone) in human liver microsomes,human liver microsomes,In human small amount of GNX produced
same,half-life,[1],532 min
same,microsomal CLint,[2],2.61 µL/min/mg
same,"Human Liver Microsomal Stability no NADPH, % remain 1 h",[3],99%
CC(=O)[C@H]1CC[C@H]2[C@@H]3CC[C@H]4C[C@](C)(OC(=O)CNC(C)(C)CO)CC[C@]4(C)[C@H]3CC[C@]12C [Compound 132],half-life,"human, microsomes",11.7 min
same,microsomal CLint,"human, microsomes",118 µL/min/mg
same,"Human Liver Microsomal Stability no NADPH, % remain 1 h","human, microsomes",1%
CC(=O)[C@H]1CC[C@H]2[C@@H]3CC[C@H]4C[C@](C)(OC(=O)COC(=O)CN(C)C)CC[C@]4(C)[C@H]3CC[C@]12C [Compound 202],half-life,[1],2.62 min
same,microsomal CLint,[2],529 µL/min/mg
same,"Human Liver Microsomal Stability no NADPH, % remain 1 h",[3],1.85%
CC(=O)[C@H]1CC[C@H]2[C@@H]3CC[C@H]4C[C@](C)(OC(=O)CN5CCC[C@H]5C(=O)O)CC[C@]4(C)[C@H]3CC[C@]12C [Compound 137],Comments: production of GNX (ganaxolone) in human liver microsomes,human liver microsomes,In human no GNX produced
same,half-life,[1],908 min
same,microsomal CLint,[2],1.52 µL/min/mg
same,"Human Liver Microsomal Stability no NADPH, % remain 1 h",[3],95%
CNC(C)(C)C(=O)OCC(=O)O[C@]1(C)CC[C@@]2(C)[C@@H](CC[C@@H]3[C@@H]2CC[C@]2(C)[C@@H](C(C)=O)CC[C@@H]32)C1 [Compound 232],half-life,[1],13.5 min
same,microsomal CLint,[2],103 µL/min/mg
same,"Human Liver Microsomal Stability no NADPH, % remain 1 h",[3],27%
COCCN(CCOC(C)=O)CC(=O)OC(C)(C)C(=O)OCC(=O)O[C@]1(C)CC[C@@]2(C)[C@@H](CC[C@@H]3[C@@H]2CC[C@]2(C)[C@@H](C(C)=O)CC[C@@H]32)C1 [Compound 236],half-life,"human, microsomes",3.72 min
same,microsomal CLint,"human, microsomes",372 µL/min/mg
same,"Human Liver Microsomal Stability no NADPH, % remain 1 h","human, microsomes",<1%
CC(=O)[C@H]1CC[C@H]2[C@@H]3CC[C@H]4C[C@](C)(OC(=O)CNCC(C)(C)O)CC[C@]4(C)[C@H]3CC[C@]12C [Compound 140],half-life,[1],39.1 min
same,microsomal CLint,[2],35.5 µL/min/mg
same,"Human Liver Microsomal Stability no NADPH, % remain 1 h",[3],99%
CC(=O)[C@H]1CC[C@H]2[C@@H]3CC[C@H]4C[C@](C)(OC(=O)COC(=O)C(C)(C)OC(=O)CN(C)C)CC[C@]4(C)[C@H]3CC[C@]12C [Compound 227],Comments: production of GNX (ganaxolone) in human liver microsomes,,In human no GNX produced
same,half-life,"human, microsomes",23.9 min
same,microsomal CLint,"human, microsomes",58.1 µL/min/mg
same,"Human Liver Microsomal Stability no NADPH, % remain 1 h","human, microsomes",71%
COC(=O)[C@@H](NCC(=O)O[C@]1(C)CC[C@@]2(C)[C@@H](CC[C@@H]3[C@@H]2CC[C@]2(C)[C@@H](C(C)=O)CC[C@@H]32)C1)C(C)C [Compound 108],Comments: production of GNX (ganaxolone) in human liver microsomes,human liver microsomes,GNX not produced in human
same,half-life,[1],12.2 min
same,microsomal CLint,[2],114 µL/min/mg
same,"Human Liver Microsomal Stability no NADPH, % remain 1 h",[3],98%
CC(=O)OCCCN(CCCOC(C)=O)CC(=O)OC(C)(C)C(=O)OCC(=O)O[C@]1(C)CC[C@@]2(C)[C@@H](CC[C@@H]3[C@@H]2CC[C@]2(C)[C@@H](C(C)=O)CC[C@@H]32)C1 [Compound 237],half-life,"human, microsomes",5.18 min
same,microsomal CLint,"human, microsomes",267 µL/min/mg
same,"Human Liver Microsomal Stability no NADPH, % remain 1 h","human, microsomes",<1%
CC(=O)[C@H]1CC[C@H]2[C@@H]3CC[C@H]4C[C@](C)(OC(=O)CN(C)C(=O)CN5CCOCC5)CC[C@]4(C)[C@H]3CC[C@]12C [Compound 115],Comments: production of GNX (ganaxolone) in human liver microsomes,human liver microsomes,In human no GNX produced
same,half-life,[1],13.8 min
same,microsomal CLint,[2],100 µL/min/mg
same,"Human Liver Microsomal Stability no NADPH, % remain 1 h",[3],99%
CC(=O)[C@H]1CC[C@H]2[C@@H]3CC[C@H]4C[C@](C)(OC(=O)CN[C@@H](C)C(=O)O)CC[C@]4(C)[C@H]3CC[C@]12C [Compound 131],Comments: production of GNX (ganaxolone) in human liver microsomes,human liver microsomes,In human no GNX produced
same,half-life,[1],207 min
same,microsomal CLint,[2],6.7 µL/min/mg
same,"Human Liver Microsomal Stability no NADPH, % remain 1 h",[3],82%
CC(=O)[C@H]1CC[C@H]2[C@@H]3CC[C@H]4C[C@](C)(OC(=O)COC(=O)C(C)(C)OC(=O)CN(C)CCCO)CC[C@]4(C)[C@H]3CC[C@]12C [Compound 245],half-life,[1],11.4 min
same,microsomal CLint,[2],122 µL/min/mg
same,"Human Liver Microsomal Stability no NADPH, % remain 1 h",[3],69.7%
COCCOCC(=O)OCC(=O)O[C@]1(C)CC[C@@]2(C)[C@@H](CC[C@@H]3[C@@H]2CC[C@]2(C)[C@@H](C(C)=O)CC[C@@H]32)C1 [Compound 204],half-life,[1],4.12 min
same,microsomal CLint,[2],337 µL/min/mg
same,"Human Liver Microsomal Stability no NADPH, % remain 1 h",[3],10.5%
CC(=O)[C@H]1CC[C@H]2[C@@H]3CC[C@H]4C[C@](C)(OC(=O)C[C@H](N)C(=O)O)CC[C@]4(C)[C@H]3CC[C@]12C [Compound 414],Comments: production of GNX (ganaxolone) in human liver microsomes,human liver microsomes,In human no GNX produced
same,half-life,[1],178 min
same,microsomal CLint,[2],7.81 µL/min/mg
same,"Human Liver Microsomal Stability no NADPH, % remain 1 h",[3],82%
COC(=O)CNCC(=O)O[C@]1(C)CC[C@@]2(C)[C@@H](CC[C@@H]3[C@@H]2CC[C@]2(C)[C@@H](C(C)=O)CC[C@@H]32)C1 [Compound 110],Comments: production of GNX (ganaxolone) in human liver microsomes,human liver microsomes,In human GNX not produced
same,half-life,[1],4.15 min
same,microsomal CLint,[2],344 µL/min/mg
same,"Human Liver Microsomal Stability no NADPH, % remain 1 h",[3],1.5%
CC(=O)[C@H]1CC[C@H]2[C@@H]3CC[C@H]4C[C@](C)(OC(=O)CCC(=O)NCCN(C)C)CC[C@]4(C)[C@H]3CC[C@]12C [Compound 410],Comments: production of GNX (ganaxolone) in human liver microsomes,human liver microsomes,In human no GNX produced
same,half-life,[1],439 min
same,microsomal CLint,[2],3.16 µL/min/mg
same,"Human Liver Microsomal Stability no NADPH, % remain 1 h",[3],99%
CC(=O)[C@H]1CC[C@H]2[C@@H]3CC[C@H]4C[C@](C)(OC(=O)CC(C)(C)C(=O)OCCN(C)C)CC[C@]4(C)[C@H]3CC[C@]12C [Compound 413],Comments: production of GNX (ganaxolone) in human liver microsomes,human liver microsomes,In human no GNX produced
same,half-life,[1],126 min
same,microsomal CLint,[2],11 µL/min/mg
same,"Human Liver Microsomal Stability no NADPH, % remain 1 h",[3],89%
CC(=O)[C@H]1CC[C@H]2[C@@H]3CC[C@H]4C[C@](C)(CC(=O)COC(=O)NCCN(C)C)CC[C@]4(C)[C@H]3CC[C@]12C [Compound 217],half-life,[1],316 min
same,microsomal CLint,[2],4.39 µL/min/mg
same,"Human Liver Microsomal Stability no NADPH, % remain 1 h",[3],99.7%
CC(=O)[C@H]1CC[C@H]2[C@@H]3CC[C@H]4C[C@](C)(OC(=O)CCCN)CC[C@]4(C)[C@H]3CC[C@]12C [Compound 417],Comments: production of GNX (ganaxolone) in human liver microsomes,human liver microsomes,In human no GNX produced
same,half-life,[1],494 min
same,microsomal CLint,[2],2.81 µL/min/mg
same,"Human Liver Microsomal Stability no NADPH, % remain 1 h",[3],99%
CC(=O)[C@H]1CC[C@H]2[C@@H]3CC[C@H]4C[C@](C)(OC(=O)COC(=O)[C@H](CC(C)C)NC(=O)[C@@H](N)CC(C)C)CC[C@]4(C)[C@H]3CC[C@]12C [Compound 215],half-life,[1],257 min
same,microsomal CLint,[2],5.39 µL/min/mg
same,"Human Liver Microsomal Stability no NADPH, % remain 1 h",[3],88%
CC(=O)[C@H]1CC[C@H]2[C@@H]3CC[C@H]4C[C@](C)(OC(=O)CNC(C)(C)COC(=O)C(C)C)CC[C@]4(C)[C@H]3CC[C@]12C [Compound 135],half-life,"human, microsomes",3.6 min
same,microsomal CLint,"human, microsomes",385 µL/min/mg
same,"Human Liver Microsomal Stability no NADPH, % remain 1 h","human, microsomes",1.3%
